# Conditions: Week 8; >=50% AEC reduction at Week 16
structure (smiles),measurement,value
"CCCN[C@@H]1CCc2nc(N)sc2C1 [Dexpramipexole, (6R)-2-amino-4,5,6,7-tetrahydro-6-(propylamino)benzothiazole]","Pre-BD FEF25-75 % change from baseline, Max",38%
same,"Pre-BD FEF25-75 % change from baseline, Mean ± SD",10.2 ± 27.88%
same,"Pre-BD FEF25-75 % change from baseline, Median",9.5%
same,"Pre-BD FEF25-75 % change from baseline, Min",−17%
same,"Pre-BD FEF25-75 % change from baseline, Q1",−17%
same,"Pre-BD FEF25-75 % change from baseline, Q3",38%
same,"Pre-BD FEF25-75 Observed, Max",1010 mL/s
same,"Pre-BD FEF25-75 Observed, Mean ± SD",666.7 ± 398.29 mL/s
same,"Pre-BD FEF25-75 Observed, Median",760.0 mL/s
same,"Pre-BD FEF25-75 Observed, Min",230 mL/s
same,"Pre-BD FEF25-75 Observed, Q1",230 mL/s
same,"Pre-BD FEF25-75 Observed, Q3",1010 mL/s
same,"Pre-BD FEF25-75 change from baseline, Max",280 mL/s
same,"Pre-BD FEF25-75 change from baseline, Mean ± SD",46.7 ± 221.21 mL/s
same,"Pre-BD FEF25-75 change from baseline, Median",20.0 mL/s
same,"Pre-BD FEF25-75 change from baseline, Min",-160 mL/s
same,"Pre-BD FEF25-75 change from baseline, Q1",-160 mL/s
same,"Pre-BD FEF25-75 change from baseline, Q3",280 mL/s
same,"Pre-BD FEV1 % change from baseline, Max",53%
same,"Pre-BD FEV1 % change from baseline, Mean ± SD",18.7 ± 30.56%
same,"Pre-BD FEV1 % change from baseline, Median",8.3%
same,"Pre-BD FEV1 % change from baseline, Min",−5%
same,"Pre-BD FEV1 % change from baseline, Q1",−5%
same,"Pre-BD FEV1 % change from baseline, Q3",53%
same,"Pre-BD FEV1 Observed, Max",1990 mL
same,"Pre-BD FEV1 Observed, Mean ± SD",1453.3 ± 616.47 mL
same,"Pre-BD FEV1 Observed, Median",1590.0 mL
same,"Pre-BD FEV1 Observed, Min",780 mL
same,"Pre-BD FEV1 Observed, Q1",780 mL
same,"Pre-BD FEV1 Observed, Q3",1990 mL
same,"Pre-BD FEV1 change from baseline, Max",690 mL
same,"Pre-BD FEV1 change from baseline, Mean ± SD",220.0 ± 413.88 mL
same,"Pre-BD FEV1 change from baseline, Median",60.0 mL
same,"Pre-BD FEV1 change from baseline, Min",-90 mL
same,"Pre-BD FEV1 change from baseline, Q1",-90 mL
same,"Pre-BD FEV1 change from baseline, Q3",690 mL
same,"Pre-BD FVC % change from baseline, Max",24%
same,"Pre-BD FVC % change from baseline, Mean ± SD",8.8 ± 13.54%
same,"Pre-BD FVC % change from baseline, Median",3.3%
same,"Pre-BD FVC % change from baseline, Min",−1%
same,"Pre-BD FVC % change from baseline, Q1",−1%
same,"Pre-BD FVC % change from baseline, Q3",24%
same,"Pre-BD FVC Observed, Max",3130 mL
same,"Pre-BD FVC Observed, Mean ± SD",2626.7 ± 477.53 mL
same,"Pre-BD FVC Observed, Median",2570.0 mL
same,"Pre-BD FVC Observed, Min",2180 mL
same,"Pre-BD FVC Observed, Q1",2180 mL
same,"Pre-BD FVC Observed, Q3",3130 mL
same,"Pre-BD FVC change from baseline, Max",610 mL
same,"Pre-BD FVC change from baseline, Mean ± SD",216.7 ± 344.29 mL
same,"Pre-BD FVC change from baseline, Median",70.0 mL
same,"Pre-BD FVC change from baseline, Min",-30 mL
same,"Pre-BD FVC change from baseline, Q1",-30 mL
same,"Pre-BD FVC change from baseline, Q3",610 mL
same,"Pre-BD Peak Flow % change from baseline, Max",90%
same,"Pre-BD Peak Flow % change from baseline, Mean ± SD",25.2 ± 58.36%
same,"Pre-BD Peak Flow % change from baseline, Median",9.6%
same,"Pre-BD Peak Flow % change from baseline, Min",−24%
same,"Pre-BD Peak Flow % change from baseline, Q1",−24%
same,"Pre-BD Peak Flow % change from baseline, Q3",90%
same,"Pre-BD Peak Flow Observed, Max",298 L/min
same,"Pre-BD Peak Flow Observed, Mean ± SD",197.7 ± 87.79 L/min
same,"Pre-BD Peak Flow Observed, Median",160.0 L/min
same,"Pre-BD Peak Flow Observed, Min",135 L/min
same,"Pre-BD Peak Flow Observed, Q1",135 L/min
same,"Pre-BD Peak Flow Observed, Q3",298 L/min
same,"Pre-BD Peak Flow change from baseline, Max",141 L/min
same,"Pre-BD Peak Flow change from baseline, Mean ± SD",37.7 ± 93.77 L/min
same,"Pre-BD Peak Flow change from baseline, Median",14.0 L/min
same,"Pre-BD Peak Flow change from baseline, Min",-42 L/min
same,"Pre-BD Peak Flow change from baseline, Q1",-42 L/min
same,"Pre-BD Peak Flow change from baseline, Q3",141 L/min

# Source: US20250352520A1, “USE OF DEXPRAMIPEXOLE FOR THE TREATMENT OF EOSINOPHILIC COPD” (Areteia Therapeutics, Inc., priority 2024, published 2025)
